Test results: the NIST ThermoML archive (doi:10.1021/je1011339)
Numbers after ± are expanded uncertainties.

What was measured:
[1] = refractive index (Na D-line) (dimensionless); settings: 298.15 K; 101.33 kPa; Liquid; Standard Abbe refractometry
[2] = 298.15 K; 101.33 kPa; Liquid; Vibrating tube method

For `CCn1cc[n+](C)c1.O=S(=O)([N-]S(=O)(=O)C(F)(F)F)C(F)(F)F`, which refractive index [1] is on record?
Its refractive index is 1.42298 ± 0.00068.

And the mass density [2]?
Its mass density is 1518.91 ± 0.36 kg/m3.

For `C=C(C)[C@H]1CC=C(C)CC1` [(R)-1-methyl-4-(1-methylethenyl)cyclohexene], which refractive index [1] is on record?
Its refractive index is 1.47081 ± 0.00068.

What about the mass density [2] of the same molecule?
The mass density was 838.68 ± 1.4 kg/m3.

With `CCCCCCCCCCn1cc[n+](C)c1.O=S(=O)([N-]S(=O)(=O)C(F)(F)F)C(F)(F)F` as the molecule, how does the refractive index [1] read?
Its refractive index is 1.43584 ± 0.00033.

And the mass density [2]?
Its mass density is 1278.4 ± 0.23 kg/m3.

With `CCCCCC[n+]1ccn(C)c1.O=S(=O)([N-]S(=O)(=O)C(F)(F)F)C(F)(F)F` as the molecule, how does the refractive index [1] read?
The refractive index was 1.42879 ± 0.00033.

And the mass density [2]?
The mass density was 1372.09 ± 0.28 kg/m3.

For `C=CC(C)(O)CCC=C(C)C` (stereo not given) [3,7-dimethyl-1,6-octadien-3-ol], which refractive index [1] is on record?
The refractive index was 1.45961 ± 0.00068.

And the mass density [2]?
The mass density was 856.83 ± 1.4 kg/m3.
